In patent US20240383908A1, “SYNTHESIS AND APPLICATION OF PHOSPHATASE DEGRADER” (HINOVA PHARMACEUTICALS INC., priority 2021, published 2024):

Target: T1, SHP2 protein (Homo sapiens, UniProt Q06124)
T1 sequence (Q06124 1-593): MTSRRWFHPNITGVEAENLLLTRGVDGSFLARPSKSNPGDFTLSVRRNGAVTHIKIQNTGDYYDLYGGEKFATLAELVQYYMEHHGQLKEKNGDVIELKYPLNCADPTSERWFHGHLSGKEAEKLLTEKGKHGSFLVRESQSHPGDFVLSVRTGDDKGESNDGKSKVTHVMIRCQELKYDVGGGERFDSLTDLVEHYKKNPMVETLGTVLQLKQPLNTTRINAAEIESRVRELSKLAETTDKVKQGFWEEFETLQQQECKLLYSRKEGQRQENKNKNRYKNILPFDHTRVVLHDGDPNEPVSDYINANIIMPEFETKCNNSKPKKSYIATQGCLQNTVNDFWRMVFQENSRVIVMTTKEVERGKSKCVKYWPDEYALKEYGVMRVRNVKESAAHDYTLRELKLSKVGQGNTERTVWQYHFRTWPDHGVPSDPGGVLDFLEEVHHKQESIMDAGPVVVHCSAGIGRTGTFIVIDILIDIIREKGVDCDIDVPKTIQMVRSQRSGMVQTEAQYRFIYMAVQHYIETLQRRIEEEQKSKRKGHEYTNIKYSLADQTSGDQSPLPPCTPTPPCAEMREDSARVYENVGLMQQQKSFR
Experiment: Degradation activity on SHP2 protein in MV-411 cells (Western blot, DC50)
Type: cell-based
Design: endogenous in cells
Details: MV411 cells, 24 hours, read-out: Degradation activity for differenct cell lines MV411 (DC50)
Procedure: • MV-411 cell line (COBIER, CBP-60522) • FBS (GEMINI, Cat. No. 900-108) • 0.01M PBS (Biosharp, Cat. No. 162262) • IMDM (Hyclone, Cat. No. SH30228.01) • Penicillin-Streptomycin (Gibco, Cat. No. 15140122) • DMSO (Sigma, Cat. No. D5879) • Centrifuge Tube, 15 ml (Excell Bio, Cat. No. CS015-0001) • Cell Culture Dish, (WHB, Cat. No. CS016-0128) • 12-well cell culture cluster (Corning, Cat. No. 3513) • RIPA lysate buffer (Thermo, Cat. No. 89900) • Protein Loding Buffer (Beyotime, Cat. No. P0015L) • BCA Protein Assay Kit (EpiZyme, Cat. No. ZJ102) • SDS-PAGE Fast Preparation Kit (EpiZyme, Cat. No. PG112) • Anti-GAPDH (14C10) Rabbit mAb (CST, Cat. No. 2118L) • Anti-SHP2 rabbit mAb (CST, Cat. No. 37525) • Peroxidase Affinipure (HRP) Goat Anti-Rabbit IgG (Zen Bioscience, Cat. No. 511203) • TBST (Biosharp, Cat. No. BL601A) • ECL chemiluminescence kit (4A Biotech, Cat. No. 4AW011-200)
• (1) Cell culture medium: IMIDM medium+10% FBS+1% Pen Strep; • (2) PBS buffer: PBS powder was dissolved in 2 L of ultrapure water and sterilized; • (3) Cell lysate: RIPA lysate buffer is added with protease inhibitors at a ratio of 1:1000 before use.
(1) MV-411 cells were cultured in the cell culture medium, and then well-growing cells were selected and inoculated in a 12-well plate, with 1 mL/well and 1×10^6 cells/well. The plate was incubated overnight in a 5% CO2 cell incubator at 37° C.
(2) 10 mM storage solution of each drug was prepared using dimethylsulfoxide (DMSO). The stock solution was diluted gradually with DMSO before use, and then 1 μL of the compound solution was added to the cell culture well (to ensure that the DMSO concentration in the culture system was […]), so that the final drug concentration is 100 nM, 10 nM, 3 nM, 1 nM, 0.3 nM, and 0.1 nM. Two wells were set for each concentration. The plate was gently shaken and mixed. Additionally, negative control wells (containing an equal amount of DMSO) and positive control wells were included.
(3) After 24 hours of cultivation, the cells were lysed using RIPA cell lysate, and the proteins were extracted. The protein concentration was measured using a BCA assay kit. 5× concentrated protein buffer was loaded, heated at 100° C. for 5 min, and then the sample was stored at −20° C.
(4) For each well, 30 μg of protein was loaded to polyacrylamide gel for electrophoresis.
(5) The protein was transferred from polyacrylamide gel to PVDF membrane, and sealed at room temperature with 5% skimmed milk for 1 h, which was then incubated with the primary antibodies (Anti-SHP2 rabbit mAb and Anti-GAPDH rabbit mAb) at 4° C. overnight. The membrane was washed three times with TBST solution, 10 minutes for each time. After that, the membrane was incubated with the secondary antibodies (horseradish peroxidase labeled goat anti-rabbit IgG) at room temperature for 2 h, and then washed three times with TBST solution, 10 minutes for each time, followed by exposure.
(6) The images were analyzed with Image J grayscale, and the degradation ratio of protein bands in the test group was calculated, based on the negative control group (DMSO) (100%).
(7) Using the Dose-response-inhibition equation in the data processing software GraphPad Prism 8, the DC50 value was obtained (which represents the drug concentration corresponding to 50% degradation of the target protein).
Finally, ECL detection solution was added for color development, and photos were taken with an automatic chemiluminescence instrument, so as to collect images and analyze them.

| SMILES | DC50 [nM] |
| --- | --- |
| Cc1ncsc1-c1ccc([C@H](C)NC(=O)[C@@H]2C[C@@H](O)CN2C(=O)[C@@H](NC(=O)CCCCCCCCCC(=O)Nc2cccc(Sc3cnc(N4CCC(C)(N)CC4)cn3)c2)C(C)(C)C)cc1 [Compound 56] | > 1000 |
| CC1(N)CCN(c2cnc(Sc3cccc(NC(=O)CCC(=O)NCCOCCOCCOCC(=O)NCc4ccc5c(c4)CN(C4CCC(=O)NC4=O)C5=O)c3)cn2)CC1 (stereo not drawn) [Compound 21] | > 1000 |
| CC1(N)CCN(c2cnc(Sc3cccc(NC(=O)CCN4CC5(CCN(c6ccc(COc7cccc8c7CN(C7CCC(=O)NC7=O)C8=O)nn6)C5)C4)c3)cn2)CC1 (stereo not drawn) [Compound 133] | > 1000 |
| CN(Cc1ccc2c(c1)CN(C1CCC(=O)NC1=O)C2=O)C(=O)c1ccc(N2CC[C@@H](OCCCCCCCC(=O)Nc3cccc(Sc4cnc(N5CCC(C)(N)CC5)cn4)c3)[C@@H](F)C2)nn1 (stereo partly drawn) [Compound 163] | < 100 |
| CC1(N)CCN(c2cnc(Sc3cccc(NC(=O)CCCCCCCCCCC(=O)NCc4ccc5c(c4)CN(C4CCC(=O)NC4=O)C5=O)c3)cn2)CC1 (stereo not drawn) [Compound 40] | < 100 |
| CN(Cc1ccc2c(c1)CN(C1CCC(=O)NC1=O)C2=O)C(=O)c1cnc(N2CCC3(CN(CCCCCCC(=O)Nc4cccc(Sc5cnc(N6CCC(C)(N)CC6)cn5)c4)C3)C2)c(Cl)c1 (stereo not drawn) [Compound 182] | < 100 |
| Cc1ncsc1-c1ccc([C@H](C)NC(=O)[C@@H]2C[C@@H](O)CN2C(=O)[C@@H](NC(=O)c2cnc(N3CCN(CCCCCCCCC(=O)Nc4cccc(Sc5cnc(N6CCC(C)(N)CC6)cn5)c4)CC3)nc2)C(C)(C)C)cc1 [Compound 47] | < 100 |
| CN(Cc1ccc2c(c1)CN(C1CCC(=O)NC1=O)C2=O)C(=O)c1ccc(N2CCC3(CN(CCCCCCC(=O)Nc4cccc(Sc5cnc(N6CCC(N)(CO)CC6)cn5)c4)C3)C2)nn1 (stereo not drawn) [Compound 169] | < 100 |
| CC1(N)CCN(c2cnc(Sc3cccc(NC(=O)CCCCCCC(=O)N4CC5(CN(C(=O)/C=C/C(=O)NCc6ccc7c(c6)CN(C6CCC(=O)NC6=O)C7=O)C5)C4)c3)cn2)CC1 (stereo not drawn) [Compound 125] | > 1000 |
| CC(C)(C)OC(=O)NC1CN(c2cnc(Sc3cccc(NC(=O)CCCCCCN4CC5(CCN(c6ccc(C(=O)NCc7ccc8c(c7)CN(C7CCC(=O)NC7=O)C8=O)nn6)C5)C4)c3)cn2)CC1O (stereo not drawn) [Compound 205] | > 1000 |
| NC1(CO)CCN(c2cnc(Sc3cccc(NC(=O)CCCCCCCCN4CC=C(c5ccc(C(=O)NCc6ccc7c(c6)CN(C6CCC(=O)NC6=O)C7=O)nn5)CC4)c3)cn2)CC1 (stereo not drawn) [Compound 202] | < 100 |
| CC1(CN)CCN(c2cnc(Sc3cccc(NC(=O)CCC(=O)N4CCN(CCCCCCCCC(=O)Nc5cccc6c5CN(C5CCC(=O)NC5=O)C6=O)CC4)c3Cl)cn2)CC1 (stereo not drawn) [Compound 13] | < 100 |
| CC1(N)CCN(c2cnc(Sc3cccc(NC(=O)CCN4CC5(CCN(Cc6ccc(COc7cccc8c7CN(C7CCC(=O)NC7=O)C8=O)cc6)C5)C4)c3)cn2)CC1 (stereo not drawn) [Compound 69] | > 1000 |
| NC1(CO)CCN(c2cnc(Sc3cccc(NC(=O)CCCCCCCNc4ccc(-c5ccc(C(=O)NCc6ccc7c(c6)C(=O)N(C6CCC(=O)NC6=O)C7)nn5)cc4)c3)cn2)CC1 (stereo not drawn) [Compound 201] | 100 to 1000 |
| CN(Cc1ccc2c(c1)CN(C1CCC(=O)NC1=O)C2=O)C(=O)c1ccc(N2CCC(OCCCCCCCC(=O)Nc3cccc(Sc4cnc(N5CCC(C)(N)CC5)cn4)c3)C(F)(F)C2)nn1 (stereo not drawn) [Compound 173] | < 100 |

Results, then the compound that gave them:

| DC50 [nM] | SMILES |
| --- | --- |
| > 1000 | CC(=O)NC1(C)CCN(c2cnc(Sc3cccc(NC(=O)CCCCCCCCN4CCN(c5ncc(C(=O)NCc6ccc7c(c6)CN(C6CCC(=O)NC6=O)C7=O)cn5)CC4)c3)cn2)CC1 (stereo not drawn) [Compound 85] |
| 100 to 1000 | CC1(N)CCN(c2cnc(Sc3cccc(NC(=O)CCN4CC5(CCN(CCCCCC(=O)NCc6cccc7c6CN(C6CCC(=O)NC6=O)C7=O)C5)C4)c3)cn2)CC1 (stereo not drawn) [Compound 45] |
| < 100 | CC1(N)CCN(c2cnc(Sc3cccc(NC(=O)CCCCCCCN4CC5CN(Cc6ccc(COc7cccc8c7CN(C7CCC(=O)NC7=O)C8=O)cc6)CC5C4)c3)cn2)CC1 (stereo not drawn) [Compound 95] |
| > 1000 | CC1(N)CCN(c2cnc(Sc3cccc(NC(=O)CC(=O)Nc4ccc5c(c4)C(=O)N(C4CCC(=O)NC4=O)C5)c3)cn2)CC1 (stereo not drawn) [Compound 9] |
| < 100 | CC1(N)CCN(c2cnc(Sc3cccc(NC(=O)CCCCCCCN4CC5(C4)CN(c4ccc(C(=O)NCc6ccc7c(c6)CN(C6CCC(=O)NC6=O)C7=O)nn4)C5)c3)cn2)CC1 (stereo not drawn) [Compound 81] |
| > 1000 | CC1(N)CCN(c2cnc(Sc3cccc(NC(=O)CCCCCCCOC4CCN(c5ncc(C(=O)Nc6cccc7c6CN(C6CCC(=O)NC6=O)C7=O)cn5)CC4)c3)cn2)CC1 (stereo not drawn) [Compound 92] |
| 100 to 1000 | Cc1ncsc1-c1ccc([C@H](C)NC(=O)[C@@H]2C[C@@H](O)CN2C(=O)[C@@H](NC(=O)c2ccc(N3CCC4(CN(CCCCC(=O)Nc5cccc(Sc6cnc(N7CCC(C)(N)CC7)cn6)c5)C4)C3)nn2)C(C)(C)C)cc1 [Compound 144] |
| < 100 | CC1(N)CCN(c2cnc(Sc3cccc(NC(=O)CCCCCCCN4CC5(CCN(c6ncc(C(=O)NCc7ccc8c(c7)CN(C7CCC(=O)NC7=O)C8=O)cn6)C5)C4)c3)cn2)CC1 (stereo not drawn) [Compound 70] |
| < 100 | CC1(CN)CCN(c2cnc(Sc3cccc(NC(=O)CCC(=O)N4CCN(CCCCCCCCC(=O)Nc5ccc6c(c5)CN(C5CCC(=O)NC5=O)C6=O)CC4)c3Cl)cn2)CC1 (stereo not drawn) [Compound 14] |
| > 1000 | CC1(N)CCN(c2cnc(Sc3cccc(NC(=O)CCC(=O)NCCOCCOCC(=O)Nc4ccc5c(c4)CN(C4CCC(=O)NC4=O)C5=O)c3)cn2)CC1 (stereo not drawn) [Compound 30] |
| > 1000 | CC1(N)CCN(c2cnc(Sc3cccc(NC(=O)C4CN(CCCCCCCCCCC(=O)NCc5ccc6c(c5)CN(C5CCC(=O)NC5=O)C6=O)C4)c3)cn2)CC1 (stereo not drawn) [Compound 43] |
| > 1000 | CCCCCOC(=O)NC1(C)CCN(c2cnc(Sc3cccc(NC(=O)CCCCCCN4CC5(CCN(c6ccc(C(=O)NCc7ccc8c(c7)CN(C7CCC(=O)NC7=O)C8=O)nn6)C5)C4)c3)cn2)CC1 (stereo not drawn) [Compound 187] |
| > 1000 | CC1(N)CCN(c2cnc(Sc3cccc(NC(=O)COCCOCCN4CCN(c5ncc(C(=O)NCc6ccc7c(c6)CN(C6CCC(=O)NC6=O)C7=O)cn5)CC4)c3)cn2)CC1 (stereo not drawn) [Compound 67] |
| < 100 | NC1(CO)CCN(c2cnc(Sc3cccc(NC(=O)CCCCCC=C4CC5(CCN(c6ccc(C(=O)NCc7ccc8c(c7)CN(C7CCC(=O)NC7=O)C8=O)nn6)CC5)C4)c3)cn2)CC1 (stereo not drawn) [Compound 210] |
| > 1000 | CN[C@H](C)C(=O)N[C@@H](C(=O)N1C[C@@H](NC(=O)c2cnc(N3CCC4(CN(CCCCC(=O)Nc5cccc(Sc6cnc(N7CCC(N)(CF)CC7)cn6)c5)C4)C3)nc2)C[C@@H]1C(=O)Nc1c(F)cccc1F)C(C)(C)C [Compound 136] |
